ChEMBL document CHEMBL1201862, “PubChem BioAssay data set” (2004)
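Method: 48-hour compound exposure of cells in 96-well plates, five concentrations, linear interpolation of endpoints. At the GI50, growth is halved.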 Activity calls are given as the source filed them. Rule as the data show it: active = GI50 up to about 1.1 µM and inactive = higher.

Legend:
Test in all cases: inhibition of tumour cell growth, NCI panel, 48 h
MOLT-4 = test system: MOLT-4
SN12C = test system: SN12C
OVCAR-5 = test system: OVCAR-5
A549 = test system: A549
RPMI-8226 = test system: RPMI-8226
U-251 = test system: U-251
NCI-H23 = test system: NCI-H23
SF-268 = test system: SF-268
NCI-H460 = test system: NCI-H460
SK-MEL-5 = test system: SK-MEL-5
TK-10 = test system: TK-10
SK-OV-3 = test system: SK-OV-3
OVCAR-8 = test system: OVCAR-8
Malme-3M = test system: Malme-3M
ACHN = test system: ACHN
NCI-H226 = test system: NCI-H226
SR = test system: SR

Measured: GI50

O=C(/C=C/c1ccccc1)c1ccc(Cl)cc1Cl
inactive: MOLT-4 18.1 µM | SN12C 23.1 µM | OVCAR-5 20.6 µM | A549 25.8 µM | RPMI-8226 3.76 µM | U-251 19.6 µM | NCI-H23 27.5 µM | SF-268 28.4 µM | NCI-H460 17.6 µM | SK-MEL-5 14.1 µM | TK-10 31.8 µM | SK-OV-3 46.9 µM | OVCAR-8 15.1 µM | Malme-3M 25.1 µM | ACHN 18.2 µM | NCI-H226 29.9 µM

O=C(/C=C/c1ccccc1O)c1cccnc1
inactive: MOLT-4 > 100 µM | SN12C > 100 µM | OVCAR-5 > 100 µM | A549 > 100 µM | U-251 > 100 µM | NCI-H23 51.3 µM | SF-268 > 100 µM | NCI-H460 > 100 µM | SR > 100 µM | SK-MEL-5 > 100 µM | TK-10 > 100 µM | SK-OV-3 > 100 µM | OVCAR-8 > 100 µM | Malme-3M > 100 µM | ACHN > 100 µM | NCI-H226 > 100 µM

COc1ccc(C=O)cc1O[Si](C)(C)C(C)(C)C
inactive: MOLT-4 > 100 µM | SN12C > 100 µM | OVCAR-5 > 100 µM | A549 > 100 µM | RPMI-8226 > 100 µM | U-251 > 100 µM | NCI-H23 > 100 µM | SF-268 > 100 µM | NCI-H460 > 100 µM | SK-MEL-5 > 100 µM | TK-10 > 100 µM | SK-OV-3 > 100 µM | OVCAR-8 > 100 µM | Malme-3M > 100 µM | ACHN > 100 µM

O=C1O[C@H](C(Cl)(Cl)Cl)N2CCCC12 (stereo partly specified)
inactive: MOLT-4 > 100 µM | SN12C > 100 µM | OVCAR-5 > 100 µM | A549 > 100 µM | RPMI-8226 > 100 µM | U-251 > 100 µM | NCI-H23 > 100 µM | SF-268 > 100 µM | NCI-H460 > 100 µM | SK-MEL-5 > 100 µM | TK-10 > 100 µM | SK-OV-3 > 100 µM | OVCAR-8 > 100 µM | Malme-3M > 100 µM | ACHN > 100 µM | NCI-H226 > 100 µM

CC(C)=C1CCC(CN(C)C)C1=O (stereo unspecified)
inactive: MOLT-4 12.1 µM | SN12C 18.4 µM | OVCAR-5 > 100 µM | A549 > 100 µM | U-251 > 100 µM | NCI-H23 35.7 µM | SF-268 31.5 µM | NCI-H460 > 100 µM | SR 12.4 µM | SK-MEL-5 15.6 µM | TK-10 17.1 µM | OVCAR-8 22.3 µM | Malme-3M 16.3 µM | ACHN 17.7 µM

Cc1cc(NS(=O)(=O)c2ccc(NC(=O)c3ccc(Cl)c4c(Nc5ccc(S(=O)(=O)Nc6cc(C)on6)cc5)c5ccccc5nc34)cc2)no1
inactive: MOLT-4 29 µM | SN12C 18.6 µM | OVCAR-5 21 µM | A549 25.6 µM | RPMI-8226 27.5 µM | U-251 16.2 µM | NCI-H23 > 10 µM | SF-268 13.8 µM | NCI-H460 21 µM | SK-MEL-5 23 µM | TK-10 31.3 µM | SK-OV-3 19.2 µM | OVCAR-8 46 µM | Malme-3M 16.2 µM | ACHN 19 µM

Cn1c2c(c3ccccc31)CCN(CCCCN1CCN(c3cccc(Cl)c3)CC1)C2=O
inactive: MOLT-4 7.62 µM | SN12C 12.8 µM | OVCAR-5 4.56 µM | A549 20.5 µM | RPMI-8226 5.66 µM | U-251 11.6 µM | NCI-H23 12.6 µM | SF-268 16.9 µM | NCI-H460 13.4 µM | SK-MEL-5 10.1 µM | TK-10 11.5 µM | SK-OV-3 16.3 µM | OVCAR-8 17.8 µM | Malme-3M > 10 µM | ACHN 14.9 µM

Oc1nc(S)nc2c1CCCN2
inactive: MOLT-4 > 100 µM | SN12C > 100 µM | OVCAR-5 > 100 µM | A549 > 100 µM | RPMI-8226 > 100 µM | U-251 > 100 µM | NCI-H23 > 100 µM | SF-268 > 100 µM | SR > 100 µM | SK-MEL-5 > 100 µM | TK-10 > 100 µM | SK-OV-3 > 100 µM | OVCAR-8 > 100 µM | Malme-3M > 100 µM | ACHN > 100 µM

COc1ccc(C2(Cl)C(Cl)(C(F)(F)F)C2(Cl)C(F)(F)F)cc1 (stereo unspecified)
inactive: MOLT-4 2.62 µM | SN12C 15.8 µM | OVCAR-5 14.1 µM | A549 14.9 µM | RPMI-8226 9.64 µM | U-251 14.9 µM | NCI-H23 14.7 µM | SF-268 15.6 µM | NCI-H460 15.9 µM | SR 10.2 µM | SK-MEL-5 10.4 µM | TK-10 18.1 µM | SK-OV-3 16.7 µM | OVCAR-8 12.6 µM | ACHN 16.8 µM | NCI-H226 15.5 µM

Nc1ccc(C(=O)NN2C(=O)C(Cl)C2c2ccccc2O)cc1 (stereo unspecified)
inactive: MOLT-4 22.5 µM | SN12C > 100 µM | OVCAR-5 41.7 µM | A549 93.1 µM | RPMI-8226 44.5 µM | U-251 36 µM | NCI-H23 > 100 µM | SF-268 70.1 µM | NCI-H460 21.4 µM | SK-MEL-5 47.4 µM | TK-10 > 100 µM | SK-OV-3 71.6 µM | OVCAR-8 42.3 µM | Malme-3M > 100 µM | ACHN 39.2 µM | NCI-H226 69.2 µM

CCOc1ccc(/N=N/c2ccc3oc(=O)c(C(=O)Nc4ccc(OC)cc4)cc3c2)cc1
inactive: MOLT-4 4.07 µM | SN12C 18 µM | OVCAR-5 32 µM | A549 40.1 µM | RPMI-8226 11.1 µM | U-251 14.1 µM | NCI-H23 19.7 µM | SF-268 9.1 µM | SK-MEL-5 15 µM | TK-10 17.1 µM | SK-OV-3 41.9 µM | OVCAR-8 12.7 µM | Malme-3M 30.1 µM

CCc1cccc(C)c1NC(=O)CC1Sc2ccccc2NC1=O (stereo unspecified)
inactive: MOLT-4 29.2 µM | SN12C > 100 µM | OVCAR-5 42.4 µM | A549 44.2 µM | RPMI-8226 24.4 µM | U-251 31.5 µM | NCI-H23 38 µM | SF-268 50.7 µM | NCI-H460 34.4 µM | SK-MEL-5 23.4 µM | TK-10 93.1 µM | SK-OV-3 75.7 µM | OVCAR-8 65.5 µM | Malme-3M 27.3 µM | ACHN 40.8 µM | NCI-H226 16 µM

C1CC2=C(C1)C1=S(S2)SC2=C1CCC2
inactive: MOLT-4 > 100 µM | SN12C > 100 µM | OVCAR-5 > 100 µM | A549 > 100 µM | RPMI-8226 > 100 µM | U-251 > 100 µM | NCI-H23 > 100 µM | SF-268 > 100 µM | NCI-H460 > 100 µM | SK-MEL-5 > 100 µM | TK-10 > 100 µM | SK-OV-3 > 100 µM | OVCAR-8 > 100 µM | Malme-3M > 100 µM | ACHN 45.7 µM | NCI-H226 > 100 µM

CC(C)(C)OC(=O)Cc1ccc2c(ccn2Cc2ccccc2)c1
inactive: MOLT-4 18 µM | SN12C 52.1 µM | OVCAR-5 42.5 µM | A549 48.8 µM | U-251 19.8 µM | NCI-H23 44.8 µM | SF-268 66.4 µM | NCI-H460 68.2 µM | SK-MEL-5 31.4 µM | TK-10 79.6 µM | SK-OV-3 > 100 µM | OVCAR-8 60.3 µM | Malme-3M > 100 µM | ACHN > 100 µM | NCI-H226 35.7 µM

O=S(=O)(O)c1ccc(-c2c3nc(c(-c4ccc(S(=O)(=O)O)cc4)c4ccc([nH]4)c(-c4ccc(S(=O)(=O)O)cc4)c4nc(c(-c5ccc(S(=O)(=O)O)cc5)c5ccc2[nH]5)C=C4)C=C3)cc1
inactive: MOLT-4 > 100 µM | SN12C > 100 µM | OVCAR-5 > 100 µM | A549 55 µM | RPMI-8226 > 100 µM | U-251 > 100 µM | NCI-H23 58.1 µM | SF-268 92.5 µM | NCI-H460 > 100 µM | SK-MEL-5 > 100 µM | TK-10 > 100 µM | SK-OV-3 > 100 µM | OVCAR-8 > 100 µM | Malme-3M > 100 µM | ACHN 86.3 µM

CN(C(=O)C1CC1)C1C2CN3CCC(O2)C13 (stereo unspecified)
inactive: MOLT-4 > 100 µM | SN12C > 100 µM | OVCAR-5 > 100 µM | A549 > 100 µM | RPMI-8226 > 100 µM | U-251 > 100 µM | NCI-H23 > 100 µM | SF-268 > 100 µM | NCI-H460 > 100 µM | SK-MEL-5 > 100 µM | TK-10 > 100 µM | SK-OV-3 > 100 µM | Malme-3M > 100 µM | ACHN > 100 µM | NCI-H226 > 100 µM

COc1ccc2c(c1)CC1c3c(cc4c(c3-2)OCO4)CCN1C (stereo unspecified)
inactive: MOLT-4 20 µM | SN12C 33.3 µM | OVCAR-5 30.1 µM | A549 21.4 µM | RPMI-8226 24.8 µM | U-251 31.6 µM | NCI-H23 23.8 µM | SF-268 > 10 µM | NCI-H460 24.3 µM | SK-MEL-5 16.9 µM | TK-10 21.1 µM | SK-OV-3 21.3 µM | OVCAR-8 21.6 µM | Malme-3M 28 µM | ACHN 16.9 µM | NCI-H226 24.6 µM

CC(=O)/C=C/c1ccc(C)cc1
inactive: MOLT-4 > 100 µM | SN12C > 100 µM | OVCAR-5 > 100 µM | A549 > 100 µM | RPMI-8226 > 100 µM | U-251 > 100 µM | NCI-H23 > 100 µM | SF-268 > 100 µM | NCI-H460 > 100 µM | SK-MEL-5 > 100 µM | TK-10 > 100 µM | SK-OV-3 > 100 µM | OVCAR-8 > 100 µM | Malme-3M > 100 µM | ACHN > 100 µM | NCI-H226 > 100 µM
